In brackets after ≈: the same amount, converted by molar mass. Several values for one entry are separate records, joined by “and”; a condition that tells them apart may be missing. Equal values may be shown once.
Experiments:
[1] = Reported or stated solubility in single organic solvents (benzene, liquid toluene, organic solvents); format: physicochemical
[2] = stable to pressures up to; Yoo and Nellis, Science, 254, p. 1489, 1991; cited from earlier work
[3] = room temperature; cited from earlier work
[4] = Solubility of C60 and C70 fullerenes in methylene chloride/toluene mixtures; format: physicochemical
Excerpt: The solubilities of C60 and C70 were established for the binary solvent system of toluene and methylene chloride using mixtures varying in composition from 100% to 0% of each component.

[5] = many organic solvents, several weeks; cited from earlier work
[6] = 0.0% CH2Cl2 / 100% toluene, duplicate samples 1 and 2
[7] = 25.0% CH2Cl2 / 75% toluene, duplicate samples 3 and 4
[8] = 50.0% CH2Cl2 / 50% toluene, duplicate samples 5 and 6
[9] = 75.0% CH2Cl2 / 25% toluene, duplicate samples 7 and 8
[10] = 100.0% CH2Cl2 / 0% toluene, duplicate samples 9 and 10

Compound | Solubility in organic solvents (in words) [1] | Reported stability to pressure [2] | Reported solubility in benzene [3] [µg/mL] | Solubility [4, 6] | Solubility [4, 7] [µg/mL] | Solubility [4, 8] | Solubility [4, 9] | Solubility [4, 10] | Stability in organic solvents (in words) [5]
c12c3c4c5c1c1c6c7c2c2c8c3c3c9c4c4c%10c5c5c1c1c6c6c%11c7c2c2c7c8c3c3c8c9c4c4c9c%10c5c5c1c1c6c6c%11c2c2c7c3c3c8c4c4c9c5c1c1c6c2c3c41 [C60, buckminsterfullerene] | very low solubility | up to 2.5×10^6 psi | 5000 | 3530 µg/mL and 3470 µg/mL | 2830 (≈ 3930 µM) | 1783 µg/mL and 1797 µg/mL | 895 µg/mL and 896 µg/mL | 556 µg/mL and 526 µg/mL | stable in many organic solvents for several weeks
c12c3c4c5c1c1c6c7c2c2c8c3c3c9c4c4c%10c5c5c1c1c6c6c%11c%12c%13c%14c%15c%16c%17c%14c%14c%18c%13c%11c1c1c5c%10c5c(c%14c%10c%17c%11c%13c%16c%14c%16c%15c%12c%12c%16c(c2c7c%126)c2c8c3c(c%13c%142)c2c9c4c5c%10c%112)c%181 [C70] | very low solubility |  |  | 611 µg/mL and 597 µg/mL | 500 (≈ 595 µM) | 328 µg/mL and 330 µg/mL | 184 µg/mL (≈ 219 µM) | 106 µg/mL and 95 µg/mL | 

Reference: US5281406A, “Recovery of C60 and C70 buckminsterfullerenes from carbon soot by supercritical fluid extraction and their separation by adsorption chromatography” (Analytical Bio-Chemistry Laboratories, Inc., priority 1992, dated 1994)
